The subject of the test is Aliivibrio fischeri. Nature of the test: Aliivibrio fischeri assay: inhibition of bacterial luminescence. Format: cell-based. To be noted: inhibition of bacterial luminescence vs untreated bacteria; 96-well plates; concentration series in DMSO/medium (2% v/v); 24 h incubation at 23 °C in the dark; saline BOSS medium (3% NaCl w/w); read-out: IC50 against the Gram-negative bacterium Aliivibrio fischeri. The source says: To our knowledge no biological screening of pure (−)-viridic acid or its analogues has been performed, and due to the potential of natural peptides and peptoids as antibacterial agents, it was decided to investigate their activity against the Gram-negative bacterium Aliivibrio fischeri. […] Although (−)-viridic acid (1) was isolated thirty years ago, this is the first unambiguous report concerning its biological activity. Based upon the results presented above, it seems that the configuration of the stereogenic center has almost no influence on the antibacterial effect of 1.
The Aliivibrio fischeri assay is based on the measurement of the inhibition of bacterial luminescence against a negative control. Bacteria were pregrown on a saline BOSS medium (3% NaCl w/w) whereby at a certain population density, bacterial luminescence will start. The bacterial suspension was diluted, distributed into 96-well microtiter plates (mtp) and the respective compounds were applied as a concentration series as solutions in DMSO/medium (2% v/v) and mixed. The luminescence of bacteria treated with the respective compounds was measured after 24 h incubation at 23 °C in the dark, in relation to controls of untreated bacteria.
1 Neves Filho, R. A. W.; Stark, S. S.; Morejon, M. C.; Westermann, B.;
3 Malkov, A. V.; Stoncius, S.; Mac Dougall, K. N.; Mariani, A.; McGeoch, G. D.; […]

Each structure is given as a SMILES string.

As to `CC(C)C(C(=O)Nc1ccccc1C(=O)O)N(C)C(=O)CNC(=O)c1ccccc1N(C)C` (racemic) [(±)-1, racemic viridic acid], the concentration for half-maximal inhibition (IC50) came to 38.4 ± 5.8 µM.
Next, `CC(C)[C@@H](C(=O)Nc1ccccc1C(=O)O)N(C)C(=O)CNC(=O)c1ccccc1N(C)C` [(−)-1, (−)-viridic acid]: 45 ± 4.4 µM.

Source of the values: paper PMC3511043, “The multicomponent approach to N-methyl peptides: total synthesis of antibacterial (–)-viridic acid and analogues” (Beilstein Journal of Organic Chemistry, 2012).
